Laboratory results as given in US9695155B2, “Herbicidal substituted pyrimidinyloxy benzene compounds” (E. I. DU PONT DE NEMOURS AND COMPANY, priority 2013, dated 2017).
Like-named read-outs stand apart in the source and are kept apart here.

How the values were obtained:
barnyardgrass = assay: Test A preemergence; assay type: in vivo, Echinochloa crus-galli; conditions: for pest or weed control at 125 g/ha / pest or weed control at 500 g/ha: Echinochloa crus-galli, pre-emergence, 240 h
Summary of the method: (§1)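 Pre- and postemergence greenhouse screen. Soil: loam + sand. Spray carrier: solvent mixture, non-phytotoxic, with surfactant. Post timing at 1–2 leaves, height 2–10 cm. Readout: visual injury on a 0–100 scale roughly 10 days after application, untreated plants as reference.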

giant foxtail = assay: Test A preemergence; assay type: in vivo, Setaria faberii; conditions: for pest or weed control at 125 g/ha / pest or weed control at 500 g/ha: Setaria faberi, pre-emergence, 240 h
Summary of the method: as §1

velvetleaf = assay: Test A preemergence; assay type: in vivo, Abutilon theophrasti
Summary of the method: as §1

ragweed = assay: Test C preemergence; assay type: in vivo, Ambrosia elatior; conditions: Ambrosia artemisiifolia, pre-emergence
From the text: (§2) Seeds of plant species selected from blackgrass (Alopecurus myosuroides), Italian ryegrass (Lolium multiflorum), wheat, winter (winter wheat, Triticum aestivum), galium (catchweed bedstraw, Galium aparine), corn (Zea mays), large (Lg) crabgrass (Digitaria sanguinalis), giant foxtail (Setaria faberii), johnsongrass (Sorghum halepense), lambsquarters (Chenopodium album), morningglory (Ipomoea coccinea), yellow nutsedge (Cyperus esculentus), pigweed (Amaranthus retroflexus), ragweed (common ragweed, Ambrosia elatior), soybean (Glycine max), barnyardgrass (Echinochloa crus-galli), oilseed rape (Brassica napus), waterhemp (common waterhemp, Amaranthus rudis), kochia (Kochia scoparia), wild oat (Avena fatua), surinam grass (Brachiaria decumbens), foxtail, green (green foxtail, Setaria viridis), goosegrass (Eleusine indica), bromegrass, downy (downy bromegrass, Bromus tectorum), nightshade (eastern black nightshade, Solanum ptycanthum), cocklebur (common cocklebur, Xanthium strumarium), cupgrass, woolly (woolly cupgrass, Eriochloa villosa), bermudagrass (Cynodon dactylon), sunflower, (common oilseed sunflower, Helianthus annuus), Russian thistle (Salsola kali), and velvetleaf (Abutilon theophrasti) were planted into a blend of loam soil and sand and treated preemergence with test chemicals formulated in a non-phytotoxic solvent mixture which included a surfactant.
(§3) At the same time, plants selected from these crop and weed species and also barley, winter (winter barley, Hordeum vulgare), windgrass (Apera spica-venti), chickweed (common chickweed, Stellaria media), deadnettle (henbit deadnettle, Lamium amplexicaule), and canarygrass (littleseed canarygrass, Phalaris minor) were planted in pots containing Redi-Earth® planting medium (Scotts Company, 14111 Scottslawn Road, Marysville, Ohio 43041) comprising spaghnum peat moss, vermiculite, wetting agent and starter nutrients and treated with postemergence applications of test chemicals formulated in the same manner. Plants ranged in height from 2 to 18 cm (1- to 4-leaf stage) for postemergence treatments. Treated plants and controls were maintained in a greenhouse for 13 to 15 days, after which time all species were compared to controls and visually evaluated. Plant response ratings, summarized in Table C, are based on a scale of 0 to 100 where 0 is no effect and 100 is complete control. A dash (-) response means no test result.

blackgrass = assay: Test C preemergence; assay type: in vivo, Alopecurus myosuroides; conditions: Alopecurus myosuroides, pre-emergence
From the text: as §2, §3

corn = assay: Test C preemergence; assay type: in vivo, Zea mays; conditions: Zea mays, pre-emergence
From the text: as §2, §3

soybean = assay: Test C preemergence; assay type: in vivo, Glycine max; conditions: Glycine max, pre-emergence
From the text: as §2, §3

morningglory = assay: Test C preemergence; assay type: in vivo, Ipomoea coccinea; conditions: Ipomoea, pre-emergence
From the text: as §2, §3

[1] = 500 g ai/ha, 0 to 100 scale, 0 no effect, 100 complete control, approx. 10 days, read-out: Barnyardgrass plant response rating
[2] = 500 g ai/ha, 0 to 100 scale, 0 no effect, 100 complete control, approx. 10 days, read-out: Foxtail, Giant plant response rating
[3] = Abutilon theophrasti, pre-emergence, 240 h, 500 g ai/ha, 0 to 100 scale, 0 no effect, 100 complete control, approx. 10 days, read-out: Velvetleaf plant response rating
[4] = 125 g ai/ha, 0 to 100 scale where 0 is no effect and 100 is complete control
[5] = 500 g ai/ha, 0 to 100 scale, 0 no effect, 100 complete control, approx. 10 days

For `FC(F)(F)c1ccn(-c2ccccc2Oc2ncc(Cl)cn2)n1` [Compound 2, 5-chloro-2-[2-[3-(trifluoromethyl)-1H-pyrazol-1-yl]phenoxy]pyrimidine], the pest or weed control at 125 g/ha (barnyardgrass; 125 g ai/ha, 0 to 100 scale where 0 is no effect and 100 is complete control, read-out: Barnyardgrass plant response rating) was 30%, the pest or weed control at 500 g/ha (barnyardgrass; [1]) was 90% and the pest or weed control at 125 g/ha (giant foxtail; 125 g ai/ha, 0 to 100 scale where 0 is no effect and 100 is complete control, read-out: Foxtail, Giant plant response rating) was 80%. The pest or weed control at 500 g/ha (giant foxtail; [2]) was 100%, the pest or weed control at 125 g/ha (velvetleaf; Abutilon theophrasti, pre-emergence, 240 h, 125 g ai/ha, 0 to 100 scale where 0 is no effect and 100 is complete control, read-out: Velvetleaf plant response rating) was 30% and the pest or weed control at 500 g/ha (velvetleaf; [3]) was 70%.
In the case of `Clc1cnc(Oc2ccccc2-n2cc(Cl)cn2)nc1` [Compound 3], the “Barnyardgrass plant response rating” value (barnyardgrass; [4]) is reported as 60, the “Barnyardgrass plant response rating” value (barnyardgrass; [5]) is reported as 100 and the “Foxtail, Giant plant response rating” value (giant foxtail; [4]) is reported as 90. For the same compound, the “Foxtail, Giant plant response rating” value (giant foxtail; [5]) was 100, the “Velvetleaf plant response rating” value (velvetleaf; [4]) was 70 and the “Velvetleaf plant response rating” value (velvetleaf; [5]) was 90.
Work on `FC(F)(F)c1cnn(-c2ccccc2Oc2ncc(Br)cn2)c1` [Compound 18, 5-bromo-2-[2-[4-(trifluoromethyl)-1H-pyrazol-1-yl]phenoxy]pyrimidine] yielded a pest or weed control at 62 g/ha (ragweed; 62 g ai/ha, preemergence, scale 0 (no effect) to 100 (complete control), read-out: Ragweed plant response rating) of 0%, a pest or weed control at 125 g/ha (ragweed; 125 g ai/ha, preemergence, scale 0 (no effect) to 100 (complete control), read-out: Ragweed plant response rating) of 10% and a pest or weed control at 250 g/ha (ragweed; 250 g ai/ha, preemergence, scale 0 (no effect) to 100 (complete control), read-out: Ragweed plant response rating) of 30%. It also gave a pest or weed control at 31 g/ha (ragweed; Preemergence, 31 g ai/ha, scale 0 to 100, 0 no effect, 100 complete control, read-out: Plant response rating, Ragweed) of 0%, a pest or weed control at 125 g/ha (barnyardgrass; 125 g ai/ha, 0 to 100 scale where 0 is no effect and 100 is complete control, read-out: Plant response rating, Barnyardgrass) of 90% and a pest or weed control at 500 g/ha (barnyardgrass; [1]) of 100%. For the same compound, the pest or weed control at 62 g/ha (blackgrass; 62 g ai/ha, preemergence, scale 0 (no effect) to 100 (complete control), read-out: Blackgrass plant response rating) was 80%, the pest or weed control at 125 g/ha (blackgrass; 125 g ai/ha, preemergence, scale 0 (no effect) to 100 (complete control), read-out: Blackgrass plant response rating) was 90% and the pest or weed control at 250 g/ha (blackgrass; 250 g ai/ha, preemergence, scale 0 (no effect) to 100 (complete control), read-out: Blackgrass plant response rating) was 90%. For the same compound, the pest or weed control at 31 g/ha (blackgrass; Preemergence, 31 g ai/ha, scale 0 to 100, 0 no effect, 100 complete control, read-out: Plant response rating, Blackgrass) was 10%, the pest or weed control at 125 g/ha (giant foxtail; 125 g ai/ha, 0 to 100 scale where 0 is no effect and 100 is complete control, read-out: Plant response rating, Foxtail, Giant) was 100% and the pest or weed control at 500 g/ha (giant foxtail; [2]) was 100%. It also gave a plant injury at 62 g/ha (corn; 62 g ai/ha, preemergence, scale 0 (no effect) to 100 (complete control), read-out: Corn plant response rating) of 10%, a plant injury at 125 g/ha (corn; 125 g ai/ha, preemergence, scale 0 (no effect) to 100 (complete control), read-out: Corn plant response rating) of 10% and a plant injury at 250 g/ha (corn; 250 g ai/ha, preemergence, scale 0 (no effect) to 100 (complete control), read-out: Corn plant response rating) of 35%. For the same compound, the Corn plant response rating (crop injury, 0 = no effect, 100 = complete kill) at 31 g/ha (corn; Preemergence, 31 g ai/ha, scale 0 to 100, 0 no effect, 100 complete control) was 0%, the “Plant response rating, Velvetleaf” value (velvetleaf; [4]) was 90 and the pest or weed control at 500 g/ha (velvetleaf; [3]) was 90%. The plant injury at 62 g/ha (soybean; 62 g ai/ha, preemergence, scale 0 (no effect) to 100 (complete control), read-out: Soybean plant response rating) was 65%, the plant injury at 125 g/ha (soybean; 125 g ai/ha, preemergence, scale 0 (no effect) to 100 (complete control), read-out: Soybean plant response rating) was 85% and the plant injury at 250 g/ha (soybean; 250 g ai/ha, preemergence, scale 0 (no effect) to 100 (complete control), read-out: Soybean plant response rating) was 85%. It also gave a plant injury at 31 g/ha (soybean; Preemergence, 31 g ai/ha, scale 0 to 100, 0 no effect, 100 complete control, read-out: Plant response rating, Soybean) of 25%, a pest or weed control at 62 g/ha (morningglory; 62 g ai/ha, preemergence, scale 0 (no effect) to 100 (complete control), read-out: Morningglory plant response rating) of 30% and a pest or weed control at 125 g/ha (morningglory; 125 g ai/ha, preemergence, scale 0 (no effect) to 100 (complete control), read-out: Morningglory plant response rating) of 80%. The pest or weed control at 250 g/ha (morningglory; 250 g ai/ha, preemergence, scale 0 (no effect) to 100 (complete control), read-out: Morningglory plant response rating) was 98% and the pest or weed control at 31 g/ha (morningglory; Preemergence, 31 g ai/ha, scale 0 to 100, 0 no effect, 100 complete control, read-out: Plant response rating, Morningglory) was 10%.
